Test [1] deals with T1, KRAS^G12D (Homo sapiens, UniProt P01116, G12D).
T1 construct: purchased Abcam
Conditions: known inhibitor, Figure 1, cited from earlier work.

Test [2] concerns the target T1, KRAS^G12D. In words: Microscale thermophoresis (MST) binding assay. The note with it: room temperature. The procedure:
MST is an effective method to evaluate biomolecular interactions and has been used to study the interactions between binding partners of different molecular sizes ([Wienken et al., 2010]; [Seidel et al., 2013]). According to the previously reported method to measure the interaction between small molecule inhibitors and KRAS^G12D protein, the MST assay was performed using Monolith NT.115 instrument (NanoTemp Technologies, GmbH, Munich, Germany) ([Wienken et al., 2010]). The red fluorescent dye was used for KRAS^G12D fluorescent labeling. Small molecule inhibitors were diluted 1:1 and titrated. The binding buffer (50 mM Tris, 230 mM NaCl) was added to the dilution curve of the small molecule inhibitors and the labeled protein. The final sample was centrifuged at 13,000 rpm for 10 min, and then filled into the capillary tube for MST analysis with 20% LED power and 50% MST power at room temperature. The equilibrium dissociation constant (K d) was calculated using Nano Temper Analysis software.
On the technique in general: In MST a laser heats a spot of the sample, and binding alters the fluorescence response.

The next test has as its system Panc 04.03 cells. Nature of the test: MTT cell proliferation assay. The format is cell-based. Conditions: Homo sapiens, 72 h treatment. The method, then:
According to the previously reported method ([Yang et al., 2019]), the human pancreatic cancer cell line (Panc 04.03) was seeded at the density of 2.4 × 10^4 on 96-well plates. After incubation at 37°C with 5% CO2 for 24 h, the cells were incubated with different concentrations of inhibitors under the same conditions. After 72 h, MTT (0.5 mg/ml, 100 μl) was added after the supernatant was discarded. Then keep the 96-well plate at 37°C for 4 h. After that, abandon the medium and inject 200 μl of dimethyl sulfoxide (DMSO) into each well. The spectrophotometric absorbance of the sample at 570 nm was measured using a Synergy 4 Microplate Reader (BioTek Instruments Inc., United States). All of the compounds were tested three times in each of the cells.
For orientation: Formazan colour is commonly taken as a measure of viable cells.

In test [3] the test system is Panc 04.03 xenograft tumors. In words: In vivo anticancer activity, Panc 04.03 xenograft. More on the design: species or system BALB/c nude mice. Conditions: 3 and 10 mg/kg intraperitoneal every 4 days, five times, 20 days, vs vehicle. The procedure: Based on previously reported protocols for investigating inhibition in vivo ([Zhou et al., 2022]), we injected Panc 04.03 cells (200 μl, 1 × 10^7 cells) in the subdermal space on the right flank of 6-week-old BALB/c nude mice (Changzhou Cavens Laboratory Animal Co., Ltd, China). All experimental protocols were approved by the Animal Ethics Committee of China Pharmaceutical University (Ethic approval number: 2022–11–001). Once tumors grew to 80–100 mm^3, mice were randomly divided into three groups (5 mice per group) and intraperitoneally administered with vehicle, hit compound 3 (3 mg/kg) and hit compound 3 (10 mg/kg) every 4 days for a total of five times. Tumor volume and body weight were measured every 4 days. Tumor volume was calculated using the formula (c × c × d)/2 (c, the smallest diameter; d, the largest diameter).

Results on seven compounds are retold here after publication PMC9815544, “Discovery of potent and noncovalent KRAS^G12D inhibitors: Structure-based virtual screening and biological evaluation” (Frontiers in Pharmacology, 2022).

SMILES strings stand for the structures. Read-outs that look alike come from different tables or passages of the source. Where only a bound is given, the exact number is not on record here.

T1 sequence (P01116 1-188 isoform P01116-2 G12D): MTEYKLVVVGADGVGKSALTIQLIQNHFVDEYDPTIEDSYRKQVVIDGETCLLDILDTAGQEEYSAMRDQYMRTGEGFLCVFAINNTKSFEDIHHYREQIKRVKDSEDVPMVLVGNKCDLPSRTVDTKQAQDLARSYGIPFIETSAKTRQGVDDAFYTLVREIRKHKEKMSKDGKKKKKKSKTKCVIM

With `Cn1cnc(Cn2ccc3ccc(CNCc4[nH]c5ccccc5c4[C@H]4NC(=O)c5ccc(O)cc54)cc32)c1` [BI-2852], on KRAS^G12D [1] (ref Kessler et al., 2019), the IC50 is 6700 nM.

Compound `C#Cc1c(F)ccc2cc(O)cc(-c3ncc4c(N5CC6CCC(C5)N6)nc(OCC5CCCN5CC5CC5)nc4c3F)c12` (stereo not shown) [Hit compound 2] displayed a Kd at KRAS^G12D [2] of 0.46 ± 0.08 nM. For the same compound, the IC50 in the test with Panc 04.03 cells amounted to 90 nM.

As to `Oc1cc(-c2ncc3c(N4CC5CCC(C4)N5)nc(OCC4CCCN4CCC4CCCC4)nc3c2F)c2c(Cl)cccc2c1` (stereo not shown) [Hit compound 3], at KRAS^G12D [2], binding was characterised by a dissociation constant (Kd) of 0.13 ± 0.05 nM. In the test on Panc 04.03 cells, the IC50 was determined as 43.8 nM. Moreover, the “Tumor growth (tumor volume) of Panc 04.03 xenograft” value in test [3] was “significantly inhibited”.

Regarding `Oc1cc(-c2ncc3c(N4CC5CCC(C4)N5)nc(OCCNC4CCCCC4)nc3c2F)c2c(Cl)cccc2c1` [Hit compound 4], on KRAS^G12D [2], the dissociation constant (Kd) was 0.76 ± 0.11 nM. In addition, the IC50 in the test on Panc 04.03 cells stood at 146 nM.

Consider `Cc1cccc2cccc(N3CCc4c(nc(OCC5CCCN5C)nc4N4CC5CCC(C4)N5)C3)c12` (stereo not shown) [TH-Z835, reference compound], for which the IC50 with Panc 04.03 cells is above 300 nM; at KRAS^G12D [1] (ref Mao et al., 2022) it was 1600 nM.

On to `NC1(C(=O)NCCCn2cc(-c3ccc(OC(F)(F)F)cc3)c3cc(CN4CCN(Cc5c(Cl)cccc5Cl)CC4)ccc32)CCNCC1` [compound 3144], for which, at KRAS^G12D [1] (ref Welsch et al., 2017), the IC50 was 3800 nM.

For `C#Cc1c(F)ccc2cc(O)cc(-c3ncc4c(N5CC6CCC(C5)N6)nc(OCC(C)NC(F)(F)F)nc4c3F)c12` (stereo not shown) [Hit compound 1], the Kd on KRAS^G12D [2] was determined as 0.98 ± 0.09 nM. Further, the IC50 in the test with Panc 04.03 cells worked out at 212 nM.

One may read the IC50 as the concentration that gives 50% inhibition. The Kd is a measure of binding affinity in units of concentration. The low end stands for higher affinity, the high end for lower affinity.
